Data taken from patent US12358915B2, “METTL3 inhibitory compounds” (STORM THERAPEUTICS LTD., priority 2019, dated 2025).
Counter-ions that a name gives are not always drawn. Like-named read-outs stand apart in the source and are kept apart here.

Target: T1, METTL3/14 (Homo sapiens, UniProt Q86U44)
T1 construct: The enzyme used was full-length his-tagged METTL3; His; made in house
Assay: METTL3/14 methyltransferase assay (METTL3_14 RFMS, RapidFire mass spectrometry);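 further: recombinant His-tagged METTL3 with FLAG-tagged METTL14 from baculovirus, SAH product quantified by mass spectrometry against isotope-labelled internal standards, 60 min at room temperature, scaled between no-RNA and DMSO-only wells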
Type: biochemical

[1] = 5 nM METTL3/14, 0.2 μM RNA substrate, 0.5 μM SAM, lower limit of the assay IC50=5 nM, Compounds 1-62, read-out: METTL3_14 RFMS IC50
[2] = 5 nM METTL3/14, 0.2 μM RNA substrate, 0.5 μM SAM, lower limit of the assay IC50=5 nM, Compounds 63-265, read-out: METTL3_14 RFMS IC50

T1 sequence (Q86U44 whole entry): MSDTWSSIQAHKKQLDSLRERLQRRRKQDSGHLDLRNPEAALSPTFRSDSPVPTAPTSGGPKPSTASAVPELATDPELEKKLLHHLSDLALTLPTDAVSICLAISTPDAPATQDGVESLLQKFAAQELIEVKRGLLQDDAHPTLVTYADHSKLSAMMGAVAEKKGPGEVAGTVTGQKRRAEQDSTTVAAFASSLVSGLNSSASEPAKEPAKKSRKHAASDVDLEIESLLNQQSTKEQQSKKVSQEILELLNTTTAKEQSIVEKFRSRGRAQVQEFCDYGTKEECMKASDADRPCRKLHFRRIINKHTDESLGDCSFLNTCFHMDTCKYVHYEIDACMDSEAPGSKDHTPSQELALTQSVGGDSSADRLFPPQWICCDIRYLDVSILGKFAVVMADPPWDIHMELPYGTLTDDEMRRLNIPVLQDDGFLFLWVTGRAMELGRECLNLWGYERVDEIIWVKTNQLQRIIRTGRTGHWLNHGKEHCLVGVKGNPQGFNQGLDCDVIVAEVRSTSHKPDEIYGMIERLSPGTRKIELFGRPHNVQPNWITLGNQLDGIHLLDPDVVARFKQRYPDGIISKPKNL
T1 sequence (Q9HCE5 whole entry partner): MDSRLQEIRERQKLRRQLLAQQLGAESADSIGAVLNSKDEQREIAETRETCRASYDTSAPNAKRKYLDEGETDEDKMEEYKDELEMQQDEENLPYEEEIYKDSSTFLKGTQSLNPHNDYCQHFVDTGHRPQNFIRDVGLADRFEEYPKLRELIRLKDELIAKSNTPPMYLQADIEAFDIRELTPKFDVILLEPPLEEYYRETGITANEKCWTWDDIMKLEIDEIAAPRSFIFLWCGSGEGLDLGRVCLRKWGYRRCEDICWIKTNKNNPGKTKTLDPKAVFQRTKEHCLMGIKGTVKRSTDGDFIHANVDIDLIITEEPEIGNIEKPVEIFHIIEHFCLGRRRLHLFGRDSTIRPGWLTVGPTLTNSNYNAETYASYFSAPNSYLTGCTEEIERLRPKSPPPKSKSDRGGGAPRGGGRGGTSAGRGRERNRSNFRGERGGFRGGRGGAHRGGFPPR

Structure (SMILES) | IC50 [1] | also measured
O=C(NCc1cn2cc(-c3ccn[nH]3)ccc2n1)c1cccc2[nH]ncc12 [Compound 35, N-{[6-(1H-pyrazol-5-yl)imidazo[1,2-a]pyridin-2-yl]methyl}-1H-indazole-4-carboxamide] | 15800 nM | –
O=C(NCc1cn2cc(-c3cccc(Cl)c3)ccc2n1)c1cccc2[nH]ncc12 [Compound 36] | 3910 nM | –
O=C(NCc1cn2cc(Nc3cccnc3)ccc2n1)c1cccc2[nH]ncc12 [Compound 37, N-({6-[(pyridin-3-yl)amino]imidazo[1,2-a]pyridin-2-yl}methyl)-1H-indazole-4-carboxamide] | 4740 nM | –
O=C(NCc1cn2cc(CN3CCNCC3)ccc2n1)c1cccc2[nH]ncc12 [Compound 38, N-({6-[(piperazin-1-yl)methyl]imidazo[1,2-a]pyridin-2-yl}methyl)-1H-indazole-4-carboxamide] | 5440 nM | –
NCc1ccc2nc(CNC(=O)c3cccc4[nH]ncc34)cn2c1 [Compound 39, N-{[6-(aminomethyl)imidazo[1,2-a]pyridin-2-yl]methyl}-1H-indazole-4-carboxamide] | 1470 nM | –
CC(=O)NCc1ccc2nc(CNC(=O)c3cccc4[nH]ncc34)cn2c1 [Compound 40, N-{[6-(acetamidomethyl)imidazo[1,2-a]pyridin-2-yl]methyl}-1H-indazole-4-carboxamide] | 7390 nM | –
Cc1ccc2nc(COC(=O)c3cccc4[nH]ncc34)cn2c1 [Compound 41, {6-methylimidazo[1,2-a]pyridin-2-yl}methyl 1H-indazole-4-carboxylate hydrochloride] | 1340 nM | –
O=C(NCc1cn2cc(CO)ccc2n1)c1cccc2[nH]ncc12 [Compound 42] | 6260 nM | –
O=C(NCc1cn2cc(O)ccc2n1)c1cccc2[nH]ncc12 [Compound 43, N-({6-hydroxyimidazo[1,2-a]pyridin-2-yl}methyl)-1H-indazole-4-carboxamide] | 1290 nM | –
CNCc1ccc2nc(CNC(=O)c3cccc4[nH]ncc34)cn2c1 [Compound 44, N-({6-[(methylamino)methyl]imidazo[1,2-a]pyridin-2-yl}methyl)-1H-indazole-4-carboxamide dihydrochloride] | 5050 nM | –
O=C(NCc1cn2cc(CNCCO)ccc2n1)c1cccc2[nH]ncc12 [Compound 45] | 2580 nM | –
O=C(NCc1cn2cc(CNCC(F)(F)F)ccc2n1)c1cccc2[nH]ncc12 [Compound 46, N-[(6-{[(2,2,2-trifluoroethyl)amino]methyl}imidazo[1,2-a]pyridin-yl)methyl]-1H-indazole-4-carboxamide] | 2210 nM | –
CC(O)c1ccc2nc(CNC(=O)c3cccc4[nH]ncc34)cn2c1 (stereo not shown) [Compound 47, N-{[6-(1-hydroxyethyl)imidazo[1,2-a]pyridin-2-yl]methyl}-1H-indazole-4-carboxamide] | 3980 nM | –
O=C(NCc1cn2cc(C(O)c3ccccc3)ccc2n1)c1cccc2[nH]ncc12 (stereo not shown) [Compound 48, N-({6-[hydroxy(phenyl)methyl]imidazo [1,2-a]pyridin-2-yl}methyl)-1H-indazole-4-carboxamide] | 2040 nM | –
NCc1ccc2nc(CNC(=O)c3cc(=O)n4ccccc4n3)cn2c1 [Compound 50, N-{[6-(aminomethyl)imidazo[1,2-a]pyridin-2-yl]methyl}-4-oxo-4H-pyrido[1,2-a]pyrimidine-2-carboxamide] | 272 nM | –
O=C(NCc1cn2cc(CNCC(F)(F)F)ccc2n1)c1cc(=O)n2ccccc2n1 [Compound 51, 4-oxo-N-[(6-{[(2,2,2-trifluoroethyl)amino]methyl}imidazo[1,2-a]pyridin-2-yl)methyl]-4H-pyrido[1,2-a]pyrimidine-2-carboxamide] | 1220 nM | –
O=C(NCc1cn2cc(CNCCO)ccc2n1)c1cc(=O)n2ccccc2n1 [Compound 52, N-[(6-{[(2-hydroxyethyl)amino]methyl}imidazo[1,2-a]pyridin-2-yl)methyl]-4-oxo-4H-pyrido[1,2-a]pyrimidine-2-carboxamide] | 267 nM | –
O=C(NCc1cn2cc(CNCCc3ccccc3)ccc2n1)c1cc(=O)n2ccccc2n1 [Compound 53, 4-oxo-N-[(6-{[(2-phenylethyl)amino]methyl}imidazo[1,2-a]pyridin-2-yl)methyl]-4H-pyrido[1,2-a]pyrimidine-2-carboxamide] | 38 nM | IC50 (read-out: IC50): 27 nM
O=C(NCc1cn2cc(CNCc3ccccc3)ccc2n1)c1cc(=O)n2ccccc2n1 [Compound 54, N-({6-[(benzylamino)methyl]imidazo[1,2-a]pyridin-2-yl}methyl)-4-oxo-4H-pyrido[1,2-a]pyrimidine-2-carboxamide] | – | IC50 (primary enzyme screen, inhibition of RNA methyltransferase activity, lower limit of the assay is IC50=5 nM, read-out: IC50): 16 nM
O=C(NCc1cn2cc(CNCCCc3ccccc3)ccc2n1)c1cc(=O)n2ccccc2n1 [Compound 55, 4-oxo-N-[(6-{[(3-phenylpropyl)amino]methyl}imidazo[1,2-a]pyridin-2-yl)methyl]-4H-pyrido[1,2-a]pyrimidine-2-carboxamide] | 87 nM | IC50 (read-out: IC50): 66 nM
O=C(NCc1cn2cc(C(O)c3ccccc3)ccc2n1)c1cc(=O)n2ccccc2n1 (stereo not shown) [Compound 56, N-({6-[hydroxy(phenyl)methyl]imidazo[1,2-a]pyridin-2-yl}methyl)-4-oxo-4H-pyrido[1,2-a]pyrimidine-2-carboxamide] | 945 nM | –
CC(O)c1ccc2nc(CNC(=O)c3cc(=O)n4ccccc4n3)cn2c1 (stereo not shown) [Compound 57, N-{[6-(1-hydroxyethyl)imidazo[1,2-a]pyridin-2-yl]methyl}-oxo-4H-pyrido[1,2-a]pyrimidine-2-carboxamide] | 702 nM | –
C=Cc1ccc2nc(CNC(=O)c3cc(=O)n4ccccc4n3)cn2c1 [Compound 58, N-({6-ethenylimidazo[1,2-a]pyridin-2-yl}methyl)-4-oxo-4H-pyrido[1,2-a]pyrimidine-2-carboxamide] | 299 nM | –
O=C(NCc1cn2cc(C3CC3)ccc2n1)c1cc(=O)n2ccccc2n1 [Compound 59, N-({6-cyclopropylimidazo[1,2-a]pyridin-2-yl}methyl)-4-oxo-4H-pyrido[1,2-a]pyrimidine-2-carboxamide] | 939 nM | –
C=Cc1ccn2cc(CNC(=O)c3cc(=O)n4ccccc4n3)nc2c1 [Compound 60, N-({7-ethenylimidazo[1,2-a]pyridin-2-yl}methyl)-4-oxo-4H-pyrido[1,2-a]pyrimidine-2-carboxamide] | 700 nM | –
O=C(NCc1cn2cc(CO)ccc2n1)c1cc(=O)n2ccccc2n1 [Compound 61, N-{[6-(hydroxymethyl)imidazo[1,2-a]pyridin-2-yl]methyl}-4-oxo-4H-pyrido[1,2-a]pyrimidine-2-carboxamide] | 695 nM | –
Cc1ccc2nc(Cc3nnc(-c4cccc5[nH]ncc45)o3)cn2c1 [Compound 62, 2-(1H-indazol-4-yl)-5-[(6-methylimidazo[1,2-a]pyridin-2-yl)methyl]-1,3,4-oxadiazole] | 8760 nM | –
NCCc1ccc2nc(CNC(=O)c3cc(=O)n4ccccc4n3)cn2c1 [Compound 63, N-{[6-(2-aminoethyl)imidazo[1,2-a]pyridin-2-yl]methyl}-4-oxo-4H-pyrido[1,2-a]pyrimidine-2-carboxamide] | – | IC50 [2]: 299 nM
Cc1ccc2nc(CNC(=O)c3cc(=O)n4c(n3)CCCC4)cn2c1 [Compound 64, N-({6-methylimidazo [1,2-a]pyridin-2-yl}methyl)-4-oxo-4H,6H,7H,8H, 9H-pyrido[1,2-a]pyrimidine-2-carboxamide] | – | IC50 [2]: 7330 nM
